Test results from patent publication US9586974B2, “Cyclic N-acyl O-amino phenol CBI derivative” (THE SCRIPPS RESEARCH LINSTITUTE, priority 2013, dated 2017).
Read-outs that look alike come from different tables or passages of the source.

Columns and labels:
[1] = system: L1210 murine leukemia cells; experiment: In vivo antitumor activity, L1210 implanted ip in B6D2F1 mice; parameters: species or system mouse
Description: [Wolfe et al., J. Med. Chem. 2012, 55:5878-5886.] Therefore, the preliminary evaluation of the in vivo antitumor activity of the cyclic N—O pro-drugs was assessed with Compound (+)-6 and was conducted alongside seco-CBI-indole2 (Compound 4) in an antitumor model consisting of L1210 murine leukemia cells implanted ip in B6D2F1 mice traditionally used to initially compare new duocarmycin derivatives (Table 3, below).
B6D2F1 mice were injected intraperitoneally (i.p.) with syngeneic L1210 cells (1×10^6) on day 0. Ten mice were randomly assigned to control vehicle or treatment groups for Compounds (+)-4 and (+)-6 at doses of 60, 100, 250, and 500 μg/kg/inj for Compounds (+)-4 or 60, 200, 500, 1000, and 2500 μg/kg/inj for Compounds (+)-6. Compounds (+)-4 and (+)-6 were formulated in 100% DMSO. Both compounds were injected i.p. on days 1, 5, and 9. Following injection of tumor cells, animals were monitored daily and weighed two times per week. Percent survival (T/C) for treated and control groups were determined by dividing the total survival days for each treatment group by the total survival days for the control group and multiplying×100. All animal studies were carried out in the animal facilities of The University of Kansas Medical Center with strict adherence to the guidelines of the IACUC Animal Welfare Committee of KUMC (IACUC approval #2009-1837).

[2] = Cleavage under reductive conditions; format: physicochemical; details: H2, Pd/C, MeOH, 23° C., 1 hour or Mo(CO)6, MeCN/H2O, reflux, 3 hours
Description: The greater stability of Compound 12 versus Compound 15 toward nucleophilic cleavage of the N—O bond can be attributed to the increased steric hindrance of the tertiary versus secondary nitrogen consistent with prior observations. [Lajiness et al., J. Med. Chem. 2010, 53:7731-7738]

[3] = Stability in acidic media
[4] = Stability in human plasma; format: in vitro ADME
Description: Reagents and solvents were purchased reagent-grade and used without further purification. Pooled human plasma, with sodium citrate as an anticoagulant, was purchased from Innovative Research and stored at −20° C. THF was freshly distilled from sodium benzophenone ketyl. All reactions were performed in oven-dried glassware under an Ar atmosphere. Evaporation and concentration in vacuo was performed at 20° C. TLC was conducted using precoated SiO2 60 F254 glass plates from EMD with visualization by UV light (254 or 366 nm). Chiral phase HPLC was performed using a Shimadzu HPLC on a semi-preparative Diacel ChiralCel OD column (0.46 cm×25 cm) with a flow rate of 7 mL/min and with UV detection at λ=254 nm. Optical rotations were determined on a Rudolf Research Analytical Autopol III Automatic Polarimeter (λ=589 nm, 25° C.).

[5] = system: L1210 (ATCC CCL-219) mouse lymphocytic leukemia cells; experiment: Cell growth inhibition assay (phosphatase readout); format: cell-based
Description: Compounds were tested for their cell growth inhibition of L1210 (ATCC CCL-219) mouse lymphocytic leukemia cells. A population of cells (>1×10^6 cells/mL as determined with a hemocytometer) was diluted with an appropriate amount of Dulbecco-modified Eagle Medium (DMEM, Gibco) containing 10% fetal bovine serum (FBS, Gibco) to a final concentration of 30,000 cells/mL. To each well of a 96-well plate (Corning® Costar®), 100 μL of the cell-media solution was added with a multichannel pipette. The cultures were incubated at 37° C. in an atmosphere of 5% CO2 and 95% humidified air for 24 hours. The test compounds were added to the plate as follows: test substances were diluted in DMSO to a concentration of 1 mM and 10-fold serial dilutions were performed on a separate 96-well plate. Fresh culture medium (100 μL) was added to each well of cells to constitute 200 μL of medium per well followed by 2 μL of each test agent. Compounds were tested in duplicate (≧2 times) at six concentrations between 0-100 nM or 0-1000 nM. Following addition, cultures were incubated for an additional 72 hours.
A phosphatase assay was used to establish the IC50 values as follows: the media in each cell was removed and 100 μL of phosphatase solution (100 mg phosphatase substrate in 30 mL 0.1 M NaOAc, pH 5.5, 0.1% Triton® X-100 buffer) was added to each well. The plates were incubated at 37° C. for 5 minutes. After the given incubation time, 50 μL of 0.1 N NaOH was added to each well and the absorption at 405 nm was determined using a 96 well plate reader. As the absorption is directly proportional to the number of living cells, the IC50 values were calculated and the reported values represent of the average of ≧4 determinations (SD±10%).

[6] = not given; remark: listed apart in the source
[7] = 60 μg/kg i.p. on days 1, 5 and 9
[8] = 200 μg/kg i.p. on days 1, 5 and 9
[9] = 500 μg/kg i.p. on days 1, 5 and 9
[10] = 1000 μg/kg i.p. on days 1, 5 and 9
[11] = 2500 μg/kg i.p. on days 1, 5 and 9
[12] = Mus musculus, L1210, 72 h, read-out: IC50 L1210 unnatural, unnatural enantiomer, 72 hours

CN1Oc2cc3c(c4cccc(c24)C1=O)[C@H](CCl)CN3C(=O)c1cc2cc(NC(=O)c3cc4ccccc4[nH]3)ccc2[nH]1 [Compound 6, N-(2-(10-(Chloromethyl)-5-methyl-4-oxo-5,8,9,10-tetrahydro-4H-pyrrolo[3′,2′:5,6]naphtho[1,8-de][1,2]oxazine-8-carbonyl)-1H-indol-5-yl)-1H-indole-2-carboxamide]
t1/2 in pH 7.0 phosphate buffer: > 4 weeks | MSP (Mean Survival Period) [1, 7]: 28 days | Surviving Mice (live animals after 366 days) [1, 7]: 0/10 | T/C = Treated/Control (MSP) × 100 [1, 7]: 159 | MSP (Mean Survival Period) [1, 8]: >68 days | Surviving Mice (live animals after 366 days) [1, 8]: 1/10 | T/C = Treated/Control (MSP) × 100 [1, 8]: >386 | MSP (Mean Survival Period) [1, 9]: >201 days | Surviving Mice (live animals after 366 days) [1, 9]: 4/10 | T/C = Treated/Control (MSP) × 100 [1, 9]: >1142 | MSP (Mean Survival Period) [1, 10]: >199 days | Surviving Mice (live animals after 366 days) [1, 10]: 4/10 | T/C = Treated/Control (MSP) × 100 [1, 10]: >1130 | MSP (Mean Survival Period) [1, 11]: >264 days | Surviving Mice (live animals after 366 days) [1, 11]: 6/10 | T/C = Treated/Control (MSP) × 100 [1, 11]: >1500 | cleavage under reductive conditions [2]: rapidly cleaved | half-life in acidic media ([3]; 1:1 TFA/CH2Cl2, 23° C.): 30 h | half-life (t1/2) in acidic media ([3]; 4 N HCl/EtOAc, 23° C. (12, 15: after initial Boc deprotection)): > 72 h | t1/2 in human plasma [4]: > 1 week | IC50 [5, 12]: 740 nM | IC50 ([5]; read-out: IC50 L1210 natural, natural enantiomer, 72 hours): 0.99 nM

O=C(Nc1ccc2[nH]c(C(=O)N3C[C@@H](CCl)c4c3cc3c5c(cccc45)C(=O)NO3)cc2c1)c1cc2ccccc2[nH]1 [Compound 7, N-(2-(10-(Chloromethyl)-4-oxo-5,8,9,10-tetrahydro-4H-pyrrolo[3′,2′:5,6]naphtho[1,8-de][1,2]oxazine-8-carbonyl)-1H-indol-5-yl)-1H-indole-2-carboxamide]
t1/2 in pH 7.0 phosphate buffer: 1 week | free drug in mouse plasma [6]: < 5% | t1/2 in human plasma [4]: 4 days | IC50 [5, 12]: 65 nM | IC50 ([5]; Mus musculus, L1210, natural enantiomer, 72 hours, read-out: IC50 L1210 natural): 0.3 nM
